Measured values reported in patent US20070072897A1, “Phenylaminopropanol derivatives and methods of their use” (Wyeth, priority 2005, published 2007).
Structures can show the parent of a compound that is named as a salt.

Assays:
human 5-HT2A receptor = target: T1, human 5-HT2A receptor (Homo sapiens, UniProt P28223); assay: 5-HT2A FLIPR assay (calcium response to DOI) in CHO cells; type: cell-based; conditions: for IC50: antagonist inhibition of 3 nM DOI stimulation, CHO cells, FLIPR; for inhibition at 1 µM: CHO, read-out: 5-HT2A Percentage inhibition at 1 μM
T1 construct: expressed in transfected cells; host or cells: CHO
Procedure: Cells are washed with PBS without Ca^2+ and 3 mL Trypsin is added to dissociate cells. After 3 minute incubation, 7 mL Trypsin Neutralizing Solution is added. Cells are then aspirated from flask and mixed in a 50 mL conical tube. 10 μL sample is used to count cells on a hemacytometer. […] Two 96-well drug plates are prepared for each cell plate. Plate 1 will contain compounds to be tested and plate 2 will contain the agonist DOI (3 nM) to activate a calcium response. Specific details of compound preparation are listed below. […] Outside wells are not used due to an edge effect seen in these cells. The reference compounds DOI and 5-HT are used as standard 5HT agonists. […] Standards for plate one are Vehicle, 1 μM DOI, and 3 nM MDL. […] On the day of the assay, test compound solutions of appropriate concentrations are diluted in assay buffer as described for single concentration testing. This procedure is followed to ensure that the solvent concentration is consistent across dilutions. The typical concentration testing range of compounds is 10^−10—10^−5 M in half log or full log increments. A 10 μM DOI stock is diluted to 60 nM and added to the respective wells. The pipeting station of the FLIPR will make an additional 20-fold dilution for a final concentration of 3 nM. Standards for this plate include Vehicle and 3 nM DOI. Contents of dye vial (Molecular Devices #R8090) are dissolved in 100 mL of 1×HBSS supplemented with 20 mM HEPES. Aliquots can be frozen at −20° C. for up to one week for future use. On the day of assay, dye is thawed and diluted to half concentration. […] Cells are allowed to adhere for 24 hours in 96-well plates. […] Cell, compound and DOI plates are loaded into the FLIPR machine. The baseline fluorescence level is read once every second for 1 minute. Compound (10 μL) is transferred from the compound plate to the cells and the fluorescence level recorded every 6 seconds for 2 minutes to determine any agonist activity. Baseline fluorescence is recorded again every second for 10 seconds. For antagonist determination, 10 μL of 3 nM DOI is transferred from the DOI plate to the cells and the fluorescence level recorded every 6 seconds for 5 minutes. The pipetting unit of the FLIPR machine completes all transfers. […] The data are log transformed prior to analysis.

human hNET = target: T2, human hNET (Homo sapiens, UniProt P23975); assay: Norepinephrine (NE) uptake assay in MDCK-Net6 cells; type: cell-based; conditions: [3H]NE uptake; for EC50: MDCK-Net6 cells stably transfected with hNET; for inhibition at 1 µM: MDCK-Net6 cells, read-out: hNET Percentage inhibition at 1 μM
T2 construct: expressed in transfected cells; host or cells: MDCK (MDCK-Net6)
Procedure: Cells were plated at 300,000/T75 flask and cells were split twice weekly. […] Cells were plated at 250,000 cells/T75 flask and split twice weekly.
Norepinephrine (NE) Uptake Assay
On day 1, cells were plated at 3,000 cells/well in growth medium and maintained in a cell incubator (37° C., 5% CO2). On day 2, growth medium was replaced with 200 μl of assay buffer (25 mM HEPES; 120 mM NaCl; 5 mM KCl; 2.5 mM CaCl2; 1.2 mM MgSO4; 2 mg/ml glucose (pH 7.4, 37° C.)) containing 0.2 mg/ml ascorbic acid and 10 μM pargyline. Plates containing cells with 200 μl of assay buffer were equilibrated for 10 minutes at 37° C. prior to addition of compounds. A stock solution of desipramine was prepared in DMSO (10 mM) and delivered to triplicate wells containing cells for a final test concentration of 1 μM. Data from these wells were used to define non-specific NE uptake (minimum NE uptake). Test compounds were prepared in DMSO (10 mM) and diluted in assay buffer according to test range (1 to 10,000 nM). Twenty-five microliters of assay buffer (maximum NE uptake) or test compound were added directly to triplicate wells containing cells in 200 μl of assay buffer. The cells in assay buffer with test compounds were incubated for 20 minutes at 37° C. […] The reaction was terminated by decanting the supernatant from the plate. The plates containing cells were washed twice with 200 μl assay buffer (37° C.) to remove free radioligand. The plates were then inverted, left to dry for 2 minutes, then reinverted and air-dried for an additional 10 minutes. […] After cell lysis, 75 μl of scintillation cocktail was added to each well and the plates were sealed with film tape. The plates were returned to the shake table and vigorously shaken for a minimum of 10 minutes to ensure adequate partitioning of organic and aqueous solutions. The plates were counted in a Wallac Microbeta counter (PerkinElmer) to collect the raw cpm data.
For each experiment, a data stream of cpm values collected from the Wallac Microbeta counter was downloaded to a Microsoft Excel statistical application program. Calculations of EC50 values were made using the transformed-both-sides logistic dose response program written by Wyeth Biometrics Department.

T2 sequence (P23975 whole entry): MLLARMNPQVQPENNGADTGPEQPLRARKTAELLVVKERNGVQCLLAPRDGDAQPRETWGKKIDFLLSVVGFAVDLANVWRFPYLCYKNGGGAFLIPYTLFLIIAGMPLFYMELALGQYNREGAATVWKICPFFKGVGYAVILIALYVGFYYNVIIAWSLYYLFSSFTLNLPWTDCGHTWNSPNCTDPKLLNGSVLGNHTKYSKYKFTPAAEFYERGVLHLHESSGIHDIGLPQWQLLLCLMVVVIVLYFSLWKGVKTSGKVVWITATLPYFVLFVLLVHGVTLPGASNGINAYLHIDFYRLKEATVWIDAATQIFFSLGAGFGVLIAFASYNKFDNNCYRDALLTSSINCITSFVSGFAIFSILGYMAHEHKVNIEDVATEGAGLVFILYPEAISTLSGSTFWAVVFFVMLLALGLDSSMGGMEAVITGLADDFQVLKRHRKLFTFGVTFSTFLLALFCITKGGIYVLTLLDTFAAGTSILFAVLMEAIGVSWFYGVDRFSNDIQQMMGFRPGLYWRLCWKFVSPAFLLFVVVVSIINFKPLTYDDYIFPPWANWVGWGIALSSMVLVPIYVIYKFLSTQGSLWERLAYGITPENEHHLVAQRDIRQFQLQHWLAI
T1 sequence (P28223 whole entry): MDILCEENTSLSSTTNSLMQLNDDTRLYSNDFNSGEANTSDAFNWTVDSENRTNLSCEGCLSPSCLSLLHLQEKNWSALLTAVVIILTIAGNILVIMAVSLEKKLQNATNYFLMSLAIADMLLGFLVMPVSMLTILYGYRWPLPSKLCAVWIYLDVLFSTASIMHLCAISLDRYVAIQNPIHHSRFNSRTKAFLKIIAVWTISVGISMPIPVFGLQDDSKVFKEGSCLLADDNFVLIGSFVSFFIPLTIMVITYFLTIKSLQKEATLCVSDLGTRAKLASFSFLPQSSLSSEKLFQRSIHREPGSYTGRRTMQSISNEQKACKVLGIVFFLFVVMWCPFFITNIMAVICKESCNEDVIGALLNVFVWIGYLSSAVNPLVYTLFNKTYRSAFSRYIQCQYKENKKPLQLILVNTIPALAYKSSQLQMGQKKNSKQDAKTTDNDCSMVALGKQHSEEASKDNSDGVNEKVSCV

Compound | EC50 (human hNET) | also measured
CNC[C@@H](O)[C@H](c1ccccc1)n1ccc2cc(OC(C)c3ccccc3)ccc21 (mixture of isomers) [Example 17, (1S,2R)-3-(methylamino)-1-phenyl-1-[5-(1RS)-(1-phenylethoxy)-1H-indol-1-yl]propan-2-ol hydrochloride] | 873 nM | IC50 (human 5-HT2A receptor): 2640 nM
CNC[C@@H](O)[C@H](c1ccccc1)n1ccc2cc(OCc3ccccc3)ccc21 [Example 1, (1S,2R)-1-[5-(benzyloxy)-1H-indol-1-yl]-3-(methylamino)-1-phenylpropan-2-ol hydrochloride] | 18 nM | IC50 (human 5-HT2A receptor): 234 nM
CNC[C@@H](O)[C@H](c1ccccc1)n1ccc2c(OCc3ccccc3)cccc21 [Example 2, (1S,2R)-1-[4-(benzyloxy)-1H-indol-1-yl]-3-(methylamino)-1-phenylpropan-2-ol hydrochloride] | 310 nM | inhibition at 1 µM (human 5-HT2A receptor): 29%
CNC[C@@H](O)[C@H](c1ccccc1)n1ccc2ccc(OCc3ccccc3)cc21 [Example 3, (1S,2R)-1-[6-(benzyloxy)-1H-indol-1-yl]-3-(methylamino)-1-phenylpropan-2-ol hydrochloride] |  | inhibition at 1 µM (human 5-HT2A receptor): 39%; inhibition at 1 µM (human hNET): 2%
CNC[C@@H](O)[C@H](c1ccccc1)n1ccc2cccc(OCc3ccccc3)c21 [Example 4, (1S,2R)-1-[7-(benzyloxy)-1H-indol-1-yl]-3-(methylamino)-1-phenylpropan-2-ol hydrochloride] |  | IC50 (human 5-HT2A receptor): 1470 nM; inhibition at 1 µM (human hNET): 20%
CNC[C@@H](O)[C@H](c1ccccc1)n1ccc2cc(OCc3ccccc3OC)ccc21 [Example 5, (1S,2R)-1-{5-[(2-methoxybenzyl)oxy]-1H-indol-1-yl}-3-(methylamino)-1-phenylpropan-2-ol hydrochloride] | 196 nM | IC50 (human 5-HT2A receptor): 678 nM
CNC[C@@H](O)[C@H](c1ccccc1)n1ccc2cc(OCc3ccccn3)ccc21 [Example 92, (1S,2R)-3-(methylamino)-1-phenyl-1-[5-(pyridin-2-ylmethoxy)-1H-indol-1-yl]propan-2-ol hydrochloride] | 9 nM | 
CNC[C@@H](O)[C@H](c1cc(F)cc(Cl)c1)N1C(=O)C(C)(C)c2cccc(F)c21 [Example 112, 1-[(1S,2R)-1-(3-chloro-5-fluorophenyl)-2-hydroxy-3-(methylamino)propyl]-7-fluoro-3,3-dimethyl-1,3-dihydro-2H-indol-2-one hydrochloride] | 2 nM | 
CNC[C@@H](O)[C@H](c1cc(F)cc(Cl)c1)N1CCc2ccccc21 [Example 113, (1S,2R)-1-(3-chloro-5-fluorophenyl)-1-(2,3-dihydro-1H-indol-1-yl)-3-(methylamino)propan-2-ol hydrochloride] | 33 nM | 
CNC[C@@H](O)[C@H](c1cc(F)cc(Cl)c1)N1CC(C)(C)c2cccc(F)c21 [Example 114, (1S,2R)-1-(3-chloro-5-fluorophenyl)-1-(7-fluoro-3,3-dimethyl-2,3-dihydro-1H-indol-1-yl)-3-(methylamino)propan-2-ol hydrochloride] | 166 nM | 
CNC[C@@H](O)[C@H](c1cc(F)cc(Cl)c1)N1CC(C)(C)c2ccccc21 [Example 115, (1S,2R)-1-(3-chloro-5-fluorophenyl)-1-(3,3-dimethyl-2,3-dihydro-1H-indol-1-yl)-3-(methylamino)propan-2-ol hydrochloride] | 133 nM | 
CNC[C@@H](O)[C@H](c1cccc(F)c1)N1C(=O)C2(CCCC2)c2cccc(F)c21 [Example 117, 7′-fluoro-1′-[(1S,2R)-1-(3-fluorophenyl)-2-hydroxy-3-(methylamino)propyl]spiro[cyclopentane-1,3′-indol]-2′(1′H)-one hydrochloride] | 2 nM | 
CNC[C@@H](O)[C@H](c1cccc(F)c1)N1C(=O)C(C)(C)c2ccc(F)cc21 [Example 118, 6-fluoro-1-[(1S,2R)-1-(3-fluorophenyl)-2-hydroxy-3-(methylamino)propyl]-3,3-dimethyl-1,3-dihydro-2H-indol-2-one hydrochloride] | 40 nM | 
CNC[C@@H](O)[C@H](c1cccc(F)c1)n1c(=O)n(-c2cccc(F)c2)c2cccc(F)c21 [Example 121, 4-fluoro-1-(3-fluorophenyl)-3-[(1S,2R)-1-(3-fluorophenyl)-2-hydroxy-3-(methylamino)propyl]-1,3-dihydro-2H-benzimidazol-2-one hydrochloride] | 189 nM | 

Continued, in another order:

EC50 (human hNET) | Compound | also measured
17 nM | CNC[C@@H](O)[C@H](c1ccccc1)n1ccc2cc(OCc3cccc(OC)c3)ccc21 [Example 6, (1S,2R)-1-{5-[(3-methoxybenzyl)oxy]-1H-indol-1-yl}-3-(methylamino)-1-phenylpropan-2-ol hydrochloride] | IC50 (human 5-HT2A receptor): 888 nM
62 nM | CNC[C@@H](O)[C@H](c1cc(F)cc(Cl)c1)n1ccc2ccccc21 [Example 70, (1S,2R)-1-(3-chloro-5-fluorophenyl)-1-(1H-indol-1-yl)-3-(methylamino)propan-2-ol hydrochloride] | 
6 nM | CNC[C@@H](O)[C@H](c1cccc(F)c1)N1C(=O)C2(CCCCC2)c2cccc(F)c21 [Example 110, 7′-fluoro-1′-[(1S,2R)-1-(3-fluorophenyl)-2-hydroxy-3-(methylamino)propyl]spiro[cyclohexane-1,3′-indol]-2′(1′H)-one hydrochloride] | 
186 nM | CNC[C@@H](O)[C@H](c1cccc(Cl)c1)N1C(=O)C2(CCCCC2)c2ccc(F)cc21 [Example 111, 1′-[(1S,2R)-1-(3-chlorophenyl)-2-hydroxy-3-(methylamino)propyl]-6′-fluorospiro[cyclohexane-1,3′-indol]-2′(1′H)-one hydrochloride] | 
10 nM | CNC[C@@H](O)[C@H](c1cccc(F)c1)N1C(=O)C2(CCC2)c2cccc(F)c21 [Example 116, 7′-fluoro-1′-[(1S,2R)-1-(3-fluorophenyl)-2-hydroxy-3-(methylamino)propyl]spiro[cyclobutane-1,3′-indol]-2′(1′H)-one hydrochloride] | 
39 nM | CNC[C@@H](O)[C@H](c1ccccc1)N1CCc2cccc(F)c21 [Example 119, (1S,2R)-1-(7-Fluoro-2,3-dihydro-1H-indol-1-yl)-3-(methylamino)-1-phenylpropan-2-ol hydrochloride] | 
92 nM | CNC[C@@H](O)[C@H](c1cccc(F)c1)n1c(=O)n(-c2ccccc2)c2cccc(F)c21 [Example 120, 4-fluoro-3-[(1S,2R)-1-(3-fluorophenyl)-2-hydroxy-3-(methylamino)propyl]-1-phenyl-1,3-dihydro-2H-benzimidazol-2-one hydrochloride] | 
207 nM | CC1(C)C(=O)N([C@@H](c2cc(F)cc(F)c2)[C@H](O)CN)c2c(F)cccc21 [Example 122, 1-[(1S,2R)-3-amino-1-(3,5-difluorophenyl)-2-hydroxypropyl]-7-fluoro-3,3-dimethyl-1,3-dihydro-2H-indol-2-one] | 
